Assay results from paper PMC4624854 (Frontiers in Molecular Neuroscience, 2015).

Experiments:
α1 GlyR [1] = test system: α1 GlyR; design: method as in Raafat et al., 2010; details: non-competitive inhibition; ref Raafat et al., 2010; cited from earlier work
α3 GlyR subunits = test system: α3 GlyR subunits; design: method as in Xiong et al., 2011; details: ref Xiong et al., 2011; cited from earlier work
α1 GlyR subunits = test system: α1 GlyR subunits; design: method as in Xiong et al., 2011; details: ref Xiong et al., 2011; cited from earlier work
α1 GlyR [2] = biological target: T1, α1 GlyR (Homo sapiens, UniProt P23415); experiment: whole-cell patch-clamp of glycine-induced currents (Igly), homomeric α1 GlyRs expressed in CHO cells; details: for average Igly (mean current amplitude) after ginkgolic acid: 2 min, control 291 ± 65
T1 sequence (P23415 29-457): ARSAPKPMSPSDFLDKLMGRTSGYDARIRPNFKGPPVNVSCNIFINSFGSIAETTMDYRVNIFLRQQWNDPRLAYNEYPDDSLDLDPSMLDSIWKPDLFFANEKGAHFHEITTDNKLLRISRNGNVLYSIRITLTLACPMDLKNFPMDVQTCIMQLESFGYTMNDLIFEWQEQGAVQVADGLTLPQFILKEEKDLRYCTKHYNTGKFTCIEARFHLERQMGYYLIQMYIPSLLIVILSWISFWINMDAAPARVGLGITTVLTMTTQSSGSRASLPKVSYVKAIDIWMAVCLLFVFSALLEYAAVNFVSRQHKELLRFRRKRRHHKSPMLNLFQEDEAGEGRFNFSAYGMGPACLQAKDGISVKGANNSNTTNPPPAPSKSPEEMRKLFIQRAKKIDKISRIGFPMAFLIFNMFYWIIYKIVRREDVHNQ
Protocol: The experiments were carried out on cultured Chinese hamster ovary (CHO-K1) cells obtained from the American Type Tissue Culture Collection (ATCC, Molsheim, France) and on mouse neuroblastoma cells (N2a) cells that were maintained in culture conditions as previously described ([Waseem et al., 2010]; [Mukhtarov et al., 2013]).
(§1) For electrophysiological analysis cells were transfected with cDNAs of different receptor-operated channels. One day before the transfection, cells were plated on the coverslips (12–14 mm in diameter), which were placed inside 35-mm cell culture dishes with 2 ml of medium. CHO-K1 cells were transfected with the following cDNAs encoding GlyR subunits: human α1 (1 μg/1 μl), α2 (2 μg/1 μl), α3-long (2 μg/1 μl), and β (in combination with α1 or α2 subunits with the ratio of cDNAs concentrations 1α:5β); or with a mixture of cDNAs encoding GABAA receptors: α1-GFP (1 μg/μl), β2 (1 μg/μl), γ2 (1 μg/μl) using the Lipofectamine 2000 transfection protocol (Life Technology, USA). To facilitate identification of expressing cells, in the case of GlyR, green fluorescent protein (GFP, 0.5 μg/μl) was added to the transfection medium. Visualization of GABAAR expression was achieved by using the α1-GFP construct ([Bueno et al., 1998]). Three hours after the initial exposure of the cells to the cDNAs, a fresh solution replaced the old one. […] Electrophysiological recordings were performed on fluorescent cells 24–72 h after transfection.
(§2) Whole-cell recordings were performed at room temperature (20–25 °C) using an EPC-9 amplifier (HEKA Elektronik, Germany). Cells were continuously superfused with external solution containing (mM): NaCl 140, CaCl2 2, KCl 2.8, MgCl2 4, HEPES 20, glucose 10; pH 7.4; 320–330 mOsm. Two intracellular solutions were used for filling recording patch pipettes. First, mainly used, ‘CsCl solution’ contained (mM): CsCl 140, CaCl2 6, MgCl2 2, MgATP 2, NaGTP 0.4, HEPES/CsOH 10, BAPTA/KOH 20; pH 7.3; 290 mOsm. In the experiments performed with CsCl intracellular solution, ionic currents were recorded at holding potential (Vh) –30 mV. In some experiments, ‘Kgluconate solution’ was used, in which CsCl 140 mM was replaced by KCl 20 mM + Kgluconate 120 mM. Recordings with this solutions were performed at Vh = 0 mV. Pipettes were pulled from borosilicate glass capillaries (Harvard Apparatus Ltd, USA) and had resistances of 5–10 MOhms. For rapid replacement of solutions, the fast application system was used in this study. Two parallel rectangular tubes (100 μm × 100 μm) were positioned 40–50 μm above the recorded cell. The movement of the tubes was controlled by a computer-driven fast exchange system (SF 77A Perfusion Fast-Step, Warner, USA) allowing a 10–90% solution exchange in 3–5 ms, as measured by open electrode controls (1/10 external solution/water).
In all experiments, the duration of the pulses of agonist was 2 s. […] Cells with low input resistance (<150 MOhms) and a rapid run-down (>30% with repetitive application) were excluded from analysis.
(§3) All electrophysiological results were analyzed using PatchMaster (HEKA Electronik, Germany) software. Dose–response curves were constructed by fitting values obtained at different concentrations, after normalization.
where I is the normalized current amplitude induced by the agonist at concentration [A], nH is the Hill coefficient and EC50 is the concentration at which a half-maximum response was induced.
Paired and unpaired Student’s t-tests were used for statistical analysis. The data are expressed as the means ± SEM.

GABAAR α1/β2/γ2 = GABAAR α1/β2/γ2 (Homo sapiens, UniProt P14867+P47870); experiment: whole-cell patch-clamp of GABA-evoked currents, α1/β2/γ2 GABAARs in CHO cells; format: cell-based
Protocol: as §1
Whole-cell recordings were performed at room temperature (20–25 °C) using an EPC-9 amplifier (HEKA Elektronik, Germany). Cells were continuously superfused with external solution containing (mM): NaCl 140, CaCl2 2, KCl 2.8, MgCl2 4, HEPES 20, glucose 10; pH 7.4; 320–330 mOsm. Two intracellular solutions were used for filling recording patch pipettes. […] In the experiments performed with CsCl intracellular solution, ionic currents were recorded at holding potential (Vh) –30 mV. […] Two parallel rectangular tubes (100 μm × 100 μm) were positioned 40–50 μm above the recorded cell. The movement of the tubes was controlled by a computer-driven fast exchange system (SF 77A Perfusion Fast-Step, Warner, USA) allowing a 10–90% solution exchange in 3–5 ms, as measured by open electrode controls (1/10 external solution/water). […]
(§4) All electrophysiological results were analyzed using PatchMaster (HEKA Electronik, Germany) software. […]

α2 GlyRs = biological target: T2, α2 GlyRs (Homo sapiens, UniProt P23416); experiment: whole-cell patch-clamp of Igly, homomeric α2 GlyRs in CHO cells; format: cell-based
T2 construct: expressed in transfected cells; host or cells: CHO-K1
T2 sequence (P23416 28-452): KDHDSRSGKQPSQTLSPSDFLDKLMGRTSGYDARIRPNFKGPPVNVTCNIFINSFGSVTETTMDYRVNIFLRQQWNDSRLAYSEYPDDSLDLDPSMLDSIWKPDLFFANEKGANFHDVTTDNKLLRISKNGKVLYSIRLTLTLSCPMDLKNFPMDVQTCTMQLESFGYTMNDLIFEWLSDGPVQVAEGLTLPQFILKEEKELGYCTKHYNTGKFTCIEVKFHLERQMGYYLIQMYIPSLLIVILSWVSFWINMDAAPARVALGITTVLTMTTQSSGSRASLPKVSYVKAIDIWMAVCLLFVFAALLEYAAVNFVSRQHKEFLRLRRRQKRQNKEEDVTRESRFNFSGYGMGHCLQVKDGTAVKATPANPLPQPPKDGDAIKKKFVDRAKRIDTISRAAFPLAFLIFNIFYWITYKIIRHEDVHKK
Protocol: (§5) For electrophysiological analysis cells were transfected with cDNAs of different receptor-operated channels. One day before the transfection, cells were plated on the coverslips (12–14 mm in diameter), which were placed inside 35-mm cell culture dishes with 2 ml of medium. CHO-K1 cells were transfected with the following cDNAs encoding GlyR subunits: human α1 (1 μg/1 μl), α2 (2 μg/1 μl), α3-long (2 μg/1 μl), and β (in combination with α1 or α2 subunits with the ratio of cDNAs concentrations 1α:5β); or with a mixture of cDNAs encoding GABAA receptors: α1-GFP (1 μg/μl), β2 (1 μg/μl), γ2 (1 μg/μl) using the Lipofectamine 2000 transfection protocol (Life Technology, USA). […]
(§6) Whole-cell recordings were performed at room temperature (20–25 °C) using an EPC-9 amplifier (HEKA Elektronik, Germany). […] In the experiments performed with CsCl intracellular solution, ionic currents were recorded at holding potential (Vh) –30 mV. […] Two parallel rectangular tubes (100 μm × 100 μm) were positioned 40–50 μm above the recorded cell. The movement of the tubes was controlled by a computer-driven fast exchange system (SF 77A Perfusion Fast-Step, Warner, USA) allowing a 10–90% solution exchange in 3–5 ms, as measured by open electrode controls (1/10 external solution/water). […]
as §4

[3] = test system: protein phosphatase 2C (PP2C); design: method as in Ahlemeyer et al., 2001; details: ref Ahlemeyer et al., 2001; cited from earlier work
α1 GlyR [4] = biological target: T1, α1 GlyR; experiment: whole-cell patch-clamp of Igly, α1 GlyR expressed in mouse neuroblastoma (N2a) cells; format: cell-based; design: expressed in transfected cells; host or cells: mouse neuroblastoma N2a; details: 3 μM ginkgolic acid, first two applications (Figure 2B)
Protocol: as §5, §6

heteromeric α1/β GlyRs = biological target: T3, heteromeric α1/β GlyRs (Homo sapiens, UniProt P23415); experiment: whole-cell patch-clamp of Igly, heteromeric α1/β GlyRs in CHO cells; format: cell-based; details: for increase of currents induced by subsaturating glycine: 25 μM ginkgolic acid, n = 5
T3 construct: expressed in transfected cells; host or cells: CHO-K1
Protocol: as §1
Whole-cell recordings were performed at room temperature (20–25 °C) using an EPC-9 amplifier (HEKA Elektronik, Germany). Cells were continuously superfused with external solution containing (mM): NaCl 140, CaCl2 2, KCl 2.8, MgCl2 4, HEPES 20, glucose 10; pH 7.4; 320–330 mOsm. Two intracellular solutions were used for filling recording patch pipettes. First, mainly used, ‘CsCl solution’ contained (mM): CsCl 140, CaCl2 6, MgCl2 2, MgATP 2, NaGTP 0.4, HEPES/CsOH 10, BAPTA/KOH 20; pH 7.3; 290 mOsm. In the experiments performed with CsCl intracellular solution, ionic currents were recorded at holding potential (Vh) –30 mV. […] Two parallel rectangular tubes (100 μm × 100 μm) were positioned 40–50 μm above the recorded cell. The movement of the tubes was controlled by a computer-driven fast exchange system (SF 77A Perfusion Fast-Step, Warner, USA) allowing a 10–90% solution exchange in 3–5 ms, as measured by open electrode controls (1/10 external solution/water). […]

[5] = biological target: T4, α3 GlyR (α3L splice variant) (Homo sapiens, UniProt O75311); experiment: whole-cell patch-clamp of Igly, α3-long (α3L) GlyRs in CHO cells; format: cell-based
T4 construct: expressed in transfected cells; host or cells: CHO-K1
T4 sequence (O75311 34-464): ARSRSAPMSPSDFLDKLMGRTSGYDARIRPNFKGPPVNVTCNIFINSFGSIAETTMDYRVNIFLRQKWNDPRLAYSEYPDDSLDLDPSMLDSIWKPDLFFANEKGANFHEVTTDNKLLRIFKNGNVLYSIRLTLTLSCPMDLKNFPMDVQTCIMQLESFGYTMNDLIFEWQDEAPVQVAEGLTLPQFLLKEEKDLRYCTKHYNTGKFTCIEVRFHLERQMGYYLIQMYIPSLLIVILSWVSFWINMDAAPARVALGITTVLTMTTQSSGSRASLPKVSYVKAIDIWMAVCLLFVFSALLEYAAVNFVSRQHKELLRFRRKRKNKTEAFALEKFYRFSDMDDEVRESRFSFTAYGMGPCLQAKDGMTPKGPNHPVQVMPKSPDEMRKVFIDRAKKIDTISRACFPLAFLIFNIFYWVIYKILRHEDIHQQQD
Protocol: as §1, §2
In all experiments, the duration of the pulses of agonist was 2 s. The duration of ginkgolic acid application varied from 20 s to 6 min. Cells with low input resistance (<150 MOhms) and a rapid run-down (>30% with repetitive application) were excluded from analysis.
as §3

[6] = test system: GlyR subunits α1, α2, α3; heteromeric vs homomeric GlyRs; design: method as in Kondratskaya et al., 2005; details: ref Kondratskaya et al., 2005; cited from earlier work

GABAAR α1/β2/γ2, sequence (P14867 28-456): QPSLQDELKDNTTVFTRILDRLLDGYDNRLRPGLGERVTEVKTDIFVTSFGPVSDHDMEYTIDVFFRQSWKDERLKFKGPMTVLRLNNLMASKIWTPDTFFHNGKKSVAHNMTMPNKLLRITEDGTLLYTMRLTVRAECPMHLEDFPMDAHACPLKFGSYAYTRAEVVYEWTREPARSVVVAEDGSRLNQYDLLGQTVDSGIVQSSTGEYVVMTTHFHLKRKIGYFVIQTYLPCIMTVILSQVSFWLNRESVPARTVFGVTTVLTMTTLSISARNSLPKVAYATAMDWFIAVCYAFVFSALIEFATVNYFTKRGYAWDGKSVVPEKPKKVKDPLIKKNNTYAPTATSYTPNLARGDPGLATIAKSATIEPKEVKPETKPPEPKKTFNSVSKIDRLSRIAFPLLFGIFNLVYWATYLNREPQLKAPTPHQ
GABAAR α1/β2/γ2, sequence (P47870 26-512): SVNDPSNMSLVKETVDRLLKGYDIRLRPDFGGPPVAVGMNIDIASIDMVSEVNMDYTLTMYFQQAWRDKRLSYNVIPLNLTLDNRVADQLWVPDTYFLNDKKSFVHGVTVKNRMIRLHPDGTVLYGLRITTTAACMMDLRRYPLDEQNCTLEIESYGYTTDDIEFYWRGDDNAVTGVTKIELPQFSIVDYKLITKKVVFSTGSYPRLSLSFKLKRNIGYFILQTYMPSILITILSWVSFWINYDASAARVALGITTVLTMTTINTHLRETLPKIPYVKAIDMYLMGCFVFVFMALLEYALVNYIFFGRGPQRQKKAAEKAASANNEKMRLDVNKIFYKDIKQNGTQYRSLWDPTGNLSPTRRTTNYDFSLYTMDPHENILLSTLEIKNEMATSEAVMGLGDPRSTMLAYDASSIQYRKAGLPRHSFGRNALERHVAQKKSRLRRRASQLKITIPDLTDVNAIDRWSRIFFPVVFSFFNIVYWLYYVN
GABAAR α1/β2/γ2, sequence (P18507 40-475 partner): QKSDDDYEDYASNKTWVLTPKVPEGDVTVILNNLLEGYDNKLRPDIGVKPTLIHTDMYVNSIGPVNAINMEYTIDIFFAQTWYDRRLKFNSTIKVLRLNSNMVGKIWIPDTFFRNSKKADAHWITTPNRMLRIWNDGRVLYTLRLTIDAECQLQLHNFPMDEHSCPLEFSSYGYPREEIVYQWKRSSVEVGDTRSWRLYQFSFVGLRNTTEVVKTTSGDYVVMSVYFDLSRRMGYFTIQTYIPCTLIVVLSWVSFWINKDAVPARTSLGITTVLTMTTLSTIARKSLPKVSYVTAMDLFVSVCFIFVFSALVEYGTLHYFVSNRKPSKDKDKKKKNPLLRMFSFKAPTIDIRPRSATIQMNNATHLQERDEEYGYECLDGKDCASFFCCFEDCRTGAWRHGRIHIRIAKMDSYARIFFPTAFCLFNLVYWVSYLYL
T3 sequence (P48167 23-497 partner, one chain of several): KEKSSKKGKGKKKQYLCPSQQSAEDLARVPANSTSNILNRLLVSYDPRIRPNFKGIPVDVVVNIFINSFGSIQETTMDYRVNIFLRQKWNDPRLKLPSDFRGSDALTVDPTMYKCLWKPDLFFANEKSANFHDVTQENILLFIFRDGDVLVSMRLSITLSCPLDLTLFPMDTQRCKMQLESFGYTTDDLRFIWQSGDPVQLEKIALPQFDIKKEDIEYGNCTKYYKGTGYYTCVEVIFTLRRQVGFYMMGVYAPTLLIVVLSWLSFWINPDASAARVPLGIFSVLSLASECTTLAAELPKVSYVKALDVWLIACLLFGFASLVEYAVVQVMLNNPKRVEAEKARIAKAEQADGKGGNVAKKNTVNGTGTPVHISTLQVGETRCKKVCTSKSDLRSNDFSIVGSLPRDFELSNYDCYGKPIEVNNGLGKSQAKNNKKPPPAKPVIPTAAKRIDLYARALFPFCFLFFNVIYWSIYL

## O=c1c(O)c(-c2ccc(O)c(O)c2)oc2cc(O)cc(O)c12 [Quercetin]
α1 GlyR [1]
  IC50: ~45 µM

## CCCCCc1cc(O)c2c(c1)OC(C)(C)C1CCC(C)=CC21 (centres unmarked) [THC, Δ^9-tetrahydrocannabiol]
α3 GlyR subunits
  concentration from which potentiation begins: ≥ 30 nM
α1 GlyR subunits
  concentration from which potentiation begins: ≥ 30 nM

## CCCCCC/C=C\CCCCCCCc1cccc(O)c1C(=O)O [ginkgolic acid]
α1 GlyR [2]
  threshold of potentiation of α1 GlyR: ~30 nM
α1 GlyR [2]; 30 nM ginkgolic acid, glycine 30 μM
  time of treatment after which potentiation was observed (onset): 2 to 3 min
α1 GlyR [2]; 100 nM ginkgolic acid, 20–30 s, n = 8
  augmentation of Igly after 20–30 s of pre-treatment: 26 ± 8%
α1 GlyR [2]; 100 nM ginkgolic acid, 40 s, glycine 30 μM, one cell (Figure 2A)
  potentiation of Igly following the first 40 s: 54%
α1 GlyR [2]; 100 nM ginkgolic acid, glycine 30 μM, n = 8
  average Igly (mean current amplitude) after ginkgolic acid: 467 ± 124 pA
α1 GlyR [2]; 100 nM ginkgolic acid, glycine 30 μM, n = 8, listed as GA
  average Igly (mean current amplitude) after ginkgolic acid: 467±124 pA
α1 GlyR [2]; 100 nM ginkgolic acid, 2 min pre-application, glycine 30 μM, n = 8 cells (range in different cells and mean ± SEM)
  degree of potentiation of Igly: 51 ± 10%
α1 GlyR [2]; 3 μM ginkgolic acid, 30 s, glycine 30 μM
  enhancement of Igly after 30 s: > 30%
α1 GlyR [2]; glycine 0.3–1 mM
  effect on amplitudes of currents induced by saturating glycine: not affected
GABAAR α1/β2/γ2; 25 μM ginkgolic acid, 20–40 s, GABA 1 μM (EC10) or 10 μM (EC50)
  changes in GABA-evoked currents: did not observe any changes
GABAAR α1/β2/γ2; 25 μM ginkgolic acid, GABA 10 μM, n = 16, control 235 ± 65
  mean current after ginkgolic acid application: 228 ± 63 pA
GABAAR α1/β2/γ2; GABA 10 μM, n = 16, control 235 ± 65
  mean current after washout of ginkgolic acid: 232 ± 65 pA
α2 GlyRs; 1 μM ginkgolic acid
  effect on Igly at 1 μM: not detectable
α2 GlyRs; ginkgolic acid <10 μM
  effect on the amplitude of Igly at low concentrations: no effect
[3]
  concentrations at which effects on PP2C were caused: > 100 µM
α1 GlyR [4]
  increase in Igly in N2a cells: more than twofold increase
Heteromeric α1/β GlyRs
  increase of currents induced by subsaturating glycine: 82 ± 39%
Heteromeric α1/β GlyRs; listed as GA
  increase of currents induced by subsaturating glycine: 82%±39
Heteromeric α1/β GlyRs; glycine 0.3–1 mM
  effect on currents induced by saturated glycine: did not increase
[5]; 25 μM ginkgolic acid
  overall effect on the amplitude of whole-cell currents: negligible
[5]; 25 μM ginkgolic acid, 20–40 sec pre-treatment, one cell
  change of current induced by 100 μM glycine, one cell with weak potentiation: +4%
[5]; 25 μM ginkgolic acid, glycine 100 μM, n = 6, control 338 ± 101
  mean current in the presence of ginkgolic acid: 318 ± 96 pA
[5]; glycine 100 μM, n = 6, control 338 ± 101
  mean current after washout of ginkgolic acid: 326 ± 113 pA

## NCC(=O)O [glycine, reference compound]
[5]; read-out: EC50 to glycine in control, n = 11
  EC50: 142 ± 9.8 µM

## ginkgolide B
[6]
  preference for α1 vs. α2 GlyR subunits: about 5 fold
  preference for α1 vs. α3 GlyR subunits: ~3 fold
